Assay results reported in patent US7229993B2, “Aryl substituted pyrimidines and the use thereof” (Euro-Celtique S.A., priority 2002, dated 2007).
pKi: −log10 of the molar value.

Biological target: rBIIa/beta 1 sodium channels expressed in Xenopus oocytes (Rattus norvegicus, UniProt P04775)
Experiment: Electrophysiological assay (two-electrode voltage clamp), sodium channel inhibition, inactivated state
Format: cell-based
Settings: apparent Ki from single point inhibition data; rat brain type IIa/beta 1 channels in Xenopus oocytes; test pulse after 4 second depolarization from -120 mV holding potential; read-out: Ki (inhibition constant for sodium channel inhibition)
Experimental: An electrophysiological assay was used to measure potencies of compounds of the present invention rBIIa/beta 1 sodium channels expressed in Xenopus oocytes.
Preparation of cRNA encoding cloned rat brain type IIa (rBIIa) and beta 1 (β1): cDNA clones encoding the rat brain beta 1 subunit are cloned in house using standard methods, and mRNA are prepared by standard methods. mRNA encoding rBIIa is provided by Dr. A. Golden (UC Irvine). The mRNAs are diluted and stored at −80° C. in 1 μL aliquots until injection.
Preparation of oocytes: Mature female Xenopus laevis are anaesthetized (20–40 min) using 0.15% 3-aminobenzoic acid ethyl ester (MS-222) following established procedures (Woodward, R. M., et al., Mol. Pharmacol. 41:89–103 (1992)).
Two to six ovarian lobes are surgically removed. Oocytes at developmental stages V–VI are dissected from the ovary, wherein the oocytes are still surrounded by enveloping ovarian tissues. Oocytes are defolliculated on the day of surgery by treatment with collagenase (0.5 mg/mL Sigma Type I, or Boehringer Mannheim Type A, for 0.5–1 hr). Treated oocytes are vortexed to dislodge epithelia, washed repeatedly and stored in Barth's medium containing 88 mM NaCl, 1 mM KCl, 0.41 mM CaCl2, 0.33 mM Ca(NO3)2, 0.82 mM MgSO4, 2.4 mM NaHCO3, 5 mM HEPES, pH 7.4 adjusted with 0.1 mg/mL gentamycin sulphate.
Micro-injection of oocytes: Defolliculated oocytes are micro-injected using a Nanoject injection system (Drummond Scientific Co., Broomall, Pa.). Injection pipettes are beveled to minimize clogging. Tip diameter of injection pipettes is 15–35 μm. Oocytes are microinjected with approximately 50 nL 1:10 ratio mixtures of cRNAs for rBIIa and beta 1 respectively.
Electrophysiology: Membrane current responses are recorded in frog Ringer solution containing 115 mM NaCl, 2 mM KCl, 1.8 mM CaCl2, 5 mM HEPES, pH 7.4. Electrical recordings are made using a conventional two-electrode voltage clamp (Dagan TEV-200) over periods ranging between 1–7 days following injection. The recording chamber is a simple gravity fed flow-through chamber (volume […] depending on adjustment of aspirator). Oocytes are placed in the recording chamber, impaled with electrodes and continuously perfused (5–15 mL min^−1) with frog Ringer's solution. […]
Voltage protocols for evoking sodium channel currents: The standard holding potential for whole oocyte clamp is −120 mV. […] Peak currents are measured as the maximum negative current after depolarizing voltage steps. […]
The purpose is to find compounds that are state dependent modifiers of neuronal sodium channels. […] Sodium currents are measured at this test pulse before and after the application of the tested compound. Data is acquired using PCLAMP 8.0 software and analyzed with CLAMPFIT software (Axon instruments). […]

Chain of rBIIa/beta 1 sodium channels expressed in Xenopus oocytes (P04775 whole entry): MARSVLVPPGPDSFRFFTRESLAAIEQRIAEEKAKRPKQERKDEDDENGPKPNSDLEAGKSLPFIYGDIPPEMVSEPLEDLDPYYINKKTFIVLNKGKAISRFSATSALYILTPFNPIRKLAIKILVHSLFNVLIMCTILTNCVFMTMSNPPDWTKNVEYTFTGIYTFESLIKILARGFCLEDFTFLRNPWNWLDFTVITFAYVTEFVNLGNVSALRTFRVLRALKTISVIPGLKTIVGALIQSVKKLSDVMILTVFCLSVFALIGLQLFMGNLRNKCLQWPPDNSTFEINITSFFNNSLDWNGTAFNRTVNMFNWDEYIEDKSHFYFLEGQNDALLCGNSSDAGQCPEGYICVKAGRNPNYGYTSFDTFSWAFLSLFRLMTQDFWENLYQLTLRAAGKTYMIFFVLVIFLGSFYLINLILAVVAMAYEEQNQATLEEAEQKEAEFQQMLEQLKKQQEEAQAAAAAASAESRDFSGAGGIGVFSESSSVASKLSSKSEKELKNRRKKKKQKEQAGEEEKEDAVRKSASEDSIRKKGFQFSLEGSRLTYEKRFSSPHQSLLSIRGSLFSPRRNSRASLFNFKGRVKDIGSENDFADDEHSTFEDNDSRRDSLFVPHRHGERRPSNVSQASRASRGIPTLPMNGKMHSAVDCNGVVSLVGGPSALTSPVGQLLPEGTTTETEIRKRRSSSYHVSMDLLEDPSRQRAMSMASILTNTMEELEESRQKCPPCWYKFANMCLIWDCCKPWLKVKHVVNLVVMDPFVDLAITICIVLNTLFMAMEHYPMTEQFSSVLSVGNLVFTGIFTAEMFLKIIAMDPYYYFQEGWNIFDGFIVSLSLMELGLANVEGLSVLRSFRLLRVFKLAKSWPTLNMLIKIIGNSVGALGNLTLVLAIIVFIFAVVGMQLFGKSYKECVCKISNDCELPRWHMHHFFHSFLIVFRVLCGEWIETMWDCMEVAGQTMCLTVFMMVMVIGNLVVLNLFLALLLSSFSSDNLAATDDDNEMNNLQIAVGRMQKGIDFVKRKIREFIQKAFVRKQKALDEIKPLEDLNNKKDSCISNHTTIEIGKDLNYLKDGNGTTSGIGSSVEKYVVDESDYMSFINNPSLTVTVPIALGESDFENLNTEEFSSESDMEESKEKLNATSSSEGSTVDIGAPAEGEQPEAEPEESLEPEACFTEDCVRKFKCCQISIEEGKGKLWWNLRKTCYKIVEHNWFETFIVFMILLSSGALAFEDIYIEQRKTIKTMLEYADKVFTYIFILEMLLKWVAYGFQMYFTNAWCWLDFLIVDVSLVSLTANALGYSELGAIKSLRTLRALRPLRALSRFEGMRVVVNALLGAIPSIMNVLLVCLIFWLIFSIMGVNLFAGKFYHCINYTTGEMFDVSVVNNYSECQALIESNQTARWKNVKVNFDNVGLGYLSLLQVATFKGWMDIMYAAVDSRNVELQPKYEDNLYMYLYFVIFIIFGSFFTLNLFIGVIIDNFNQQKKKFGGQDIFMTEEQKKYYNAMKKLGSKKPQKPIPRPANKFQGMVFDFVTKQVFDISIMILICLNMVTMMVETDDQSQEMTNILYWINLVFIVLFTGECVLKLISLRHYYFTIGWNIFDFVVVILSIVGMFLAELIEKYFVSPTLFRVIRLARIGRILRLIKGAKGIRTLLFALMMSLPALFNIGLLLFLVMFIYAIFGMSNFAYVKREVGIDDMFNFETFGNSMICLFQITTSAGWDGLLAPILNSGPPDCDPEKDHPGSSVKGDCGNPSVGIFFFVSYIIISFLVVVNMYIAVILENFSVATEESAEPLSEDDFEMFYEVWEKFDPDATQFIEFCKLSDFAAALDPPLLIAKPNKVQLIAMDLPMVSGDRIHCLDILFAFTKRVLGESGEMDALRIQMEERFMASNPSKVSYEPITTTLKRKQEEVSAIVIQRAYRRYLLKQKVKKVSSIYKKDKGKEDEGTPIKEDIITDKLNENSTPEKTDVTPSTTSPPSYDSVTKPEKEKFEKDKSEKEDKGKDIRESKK
Chain of rBIIa/beta 1 sodium channels expressed in Xenopus oocytes (Q00954 19-218 partner): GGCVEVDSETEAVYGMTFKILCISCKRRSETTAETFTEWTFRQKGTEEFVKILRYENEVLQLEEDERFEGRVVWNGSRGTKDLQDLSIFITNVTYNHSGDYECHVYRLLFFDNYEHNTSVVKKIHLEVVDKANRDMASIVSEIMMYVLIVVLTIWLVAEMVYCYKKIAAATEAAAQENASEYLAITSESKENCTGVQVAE

**Q.** `Nc1nc(-c2ccc(Oc3ccc(F)cc3)cc2)[nH]c(=O)c1Cc1ccccc1Cl` [2-(4-(4-fluorophenoxy)phenyl)-6-amino-5-(2-chlorobenzyl)pyrimidin-4-one] was tested. Which pKi did it give?
**A.** 4.51

**Q.** With “2-(4-(4-fluorophenoxy)phenyl)-4-tert-butyl-6-aminopyrimidin-4-one” as the molecule, how does the pKi read?
**A.** 4.81

**Q.** With `Nc1cc(=O)[nH]c(-c2ccc(Oc3ccc(F)cc3)cc2)n1` [2-(4-(4-fluorophenoxy)phenyl)-6-amino-pyrimidin-4-one] as the molecule, how does the pKi read?
**A.** 6.33

**Q.** How did the pKi turn out when `Nc1nc(-c2ccccc2)[nH]c(=O)c1Cc1ccccc1Cl` [2-phenyl-6-amino-5-(2-chlorobenzyl)pyrimidin-4-one] was run?
**A.** 4.31
